Source: patent US20230118688A1, “1H-PYRAZOLO[4,3-d]PYRIMIDINE COMPOUNDS AS TOLL-LIKE RECEPTOR 7 (TLR7) AGONISTS” (BRISTOL-MYERS SQUIBB COMPANY, priority 2020, published 2023)
Where two headings read alike, the source gives them in different places.

Tests used:
CD69 = assay: Induction of CD69 in human whole blood; type: cell-based; conditions: 17 h, CD69 surface staining, 100% set to 1 uM resiquimod
Method in brief: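 Heparinized human whole blood, RPMI-diluted, incubated with TLR7 agonist (final 1 uM from 1 mM stock) for 17 h at 37 °C. CD69-PE surface staining with CD14/CD19 gating, fix/lysis, then flow cytometry; curves normalized with 1 uM resiquimod as 100%.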

human TLR7 = biological target: T1, human TLR7 (Homo sapiens, UniProt Q9NYK1); assay: Human TLR7 agonist activity reporter assay (HEK-Blue TLR7 cells, SEAP reporter); type: cell-based; conditions: 18 h treatment
T1 construct: host or cells: HEK-Blue TLR7 cells (engineered human embryonic kidney cells)
T1 sequence (Q9NYK1 27-1049): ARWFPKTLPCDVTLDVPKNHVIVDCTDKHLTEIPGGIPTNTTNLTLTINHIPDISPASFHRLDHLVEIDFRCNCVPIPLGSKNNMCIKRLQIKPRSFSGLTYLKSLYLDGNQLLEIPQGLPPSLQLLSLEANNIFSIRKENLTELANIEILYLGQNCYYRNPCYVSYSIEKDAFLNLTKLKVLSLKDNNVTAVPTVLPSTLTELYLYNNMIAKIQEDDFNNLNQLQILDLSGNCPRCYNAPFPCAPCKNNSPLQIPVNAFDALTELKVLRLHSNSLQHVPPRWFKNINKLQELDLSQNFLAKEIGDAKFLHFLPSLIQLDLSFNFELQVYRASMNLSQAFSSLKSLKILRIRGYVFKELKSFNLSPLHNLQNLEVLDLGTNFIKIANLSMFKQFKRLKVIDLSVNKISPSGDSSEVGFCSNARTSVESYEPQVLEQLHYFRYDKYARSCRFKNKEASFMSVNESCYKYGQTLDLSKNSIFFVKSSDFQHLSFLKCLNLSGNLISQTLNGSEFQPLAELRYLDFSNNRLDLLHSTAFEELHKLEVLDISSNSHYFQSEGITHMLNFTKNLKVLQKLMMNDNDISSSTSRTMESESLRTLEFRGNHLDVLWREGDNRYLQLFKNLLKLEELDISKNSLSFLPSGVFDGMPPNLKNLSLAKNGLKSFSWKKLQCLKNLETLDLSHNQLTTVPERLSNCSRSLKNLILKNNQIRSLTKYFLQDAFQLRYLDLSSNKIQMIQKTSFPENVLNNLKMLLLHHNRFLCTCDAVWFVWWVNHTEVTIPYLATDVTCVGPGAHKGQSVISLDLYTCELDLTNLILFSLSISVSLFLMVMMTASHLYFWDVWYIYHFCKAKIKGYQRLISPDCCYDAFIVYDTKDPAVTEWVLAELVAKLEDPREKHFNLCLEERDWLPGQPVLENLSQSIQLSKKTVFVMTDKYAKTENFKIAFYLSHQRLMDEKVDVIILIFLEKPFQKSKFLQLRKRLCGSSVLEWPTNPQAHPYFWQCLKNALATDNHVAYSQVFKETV
Method in brief: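 HEK-Blue TLR7 cells (15,000/well) treated with compound for 18 h at 37 °C, 5% CO2. Secreted SEAP measured with Quanti-Blue, 30 min, OD 620 nm. EC50 taken as concentration giving half-maximal response between baseline and maximum.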

[1] = average where assay repeated, Table A1, read-out: hWB CD69 EC50
[2] = average where assay repeated, Table A1, read-out: hTLR7 Agonism EC50
[3] = Table A2, read-out: hWB CD69 EC50
[4] = Table A2, read-out: hTLR7 Agonism EC50

| EC50 (CD69; [1]) | EC50 (human TLR7; [2]) | EC50 (CD69; [3]) | EC50 (human TLR7; [4]) | SMILES |
| --- | --- | --- | --- | --- |
| ≥ 1000 nM | 665 nM |  |  | CCCCNc1nc(N)nc2cnn(Cc3cc(CN(C)C(=O)CC(C)(C)O)ccc3OC)c12 [Compound 148, N-[(3-{[5-amino-7-(butyl-amino)-1H-pyrazolo[4,3-d]pyrimidin-1-yl]methyl}-4-methoxyphenyl)methyl]-3-hydroxy-N,3-dimethyl-butanamide] |
| 525 nM | 271 nM |  |  | COc1ccc(CN2CC(OC)C2)cc1Cn1ncc2nc(N)nc(NCC3CC4(CC4)C3)c21 [Compound 149, 1-({2-methoxy-5-[(3-methoxyazetidin-1-yl)methyl]-phenyl}methyl)-N7-({spiro-[2.3]hexan-5-yl}methyl)-1H-pyrazolo[4,3-d]pyrimidine-5,7-diamine] |
| 298 nM | 387 nM |  |  | COc1ccc(CNC2CCOCC2)cc1Cn1ncc2nc(N)nc(NCC3CC4(CC4)C3)c21 [Compound 150, 1-[(2-methoxy-5-{[(oxan-4-yl)amino]methyl}phenyl)-methyl]-N7-({spiro[2.3]-hexan-5-yl}methyl)-1H-pyrazolo[4,3-d]pyrimidine-5,7-diamine] |
| ≥ 1000 nM | 768 nM |  |  | CCCCNc1nc(N)nc2cnn(Cc3cc(CN4CC(F)(F)C4)ccc3OC)c12 [Compound 151, N7-butyl-1-({5-[(3,3-difluoro-azetidin-1-yl)methyl]-2-methoxyphenyl}methyl)-1H-pyrazolo[4,3-d] pyrimidine-5,7-diamine] |
| 159 nM | 467 nM |  |  | COc1ccc(C(=O)NC2CCN(C)CC2)cc1Cn1ncc2nc(N)nc(NCC3CC4(CC4)C3)c21 [Compound 152, 3-({5-amino-7-[({spiro-[2.3]hexan-5-yl}methyl)-amino]-1H-pyrazolo[4,3-d]pyrimidin-1-yl}methyl)-4-methoxy-N-(1-methylpiperidin-4-yl)benzamide] |
| 144 nM | 280 nM |  |  | CCC[C@@H](CCO)Nc1nc(N)nc2cnn(Cc3cc(C(=O)N[C@@H]4CCN(C)C4)ccc3OC)c12 [Compound 154, 3-[(5-amino-7-{[(3S)-1-hydroxyhexan-3-yl]amino}-1H-pyrazolo[4,3-d]pyrimidin-1-yl)methyl]-4-methoxy-N-[(3R)-1-methylpyrrolidin-3-yl] benzamide] |
| 129 nM | 150 nM |  |  | CCC[C@@H](CCO)Nc1nc(N)nc2cnn(Cc3cc(CN4CCNCC4)ccc3OC)c12 [Compound 155, (3S)-3-{[5-amino-1-({2-methoxy-5-[(piperazin-1-yl)-methyl]phenyl}methyl)-1H-pyrazolo[4,3-d]pyrimidin-7-yl]amino}hexan-1-ol] |
| 73.6 nM | 56.9 nM |  |  | CCC[C@@H](CCO)Nc1nc(N)nc2cnn(Cc3cc(CN4CCN(CCO)CC4)ccc3OC)c12 [Compound 156, (3S)-3-({5-amino-1-[(5-{[4-(2-hydroxyethyl)piperazin-1-yl]methyl}-2-methoxy-phenyl)methyl]-1H-pyrazolo[4,3-d]pyrimidin-7-yl}amino)hexan-1-ol] |
| 13.2 nM | 22.5 nM |  |  | CCC[C@@H](CCO)Nc1nc(N)nc2cnn(Cc3cc(CN4CCN(C)CC4)ccc3OC)c12 [Compound 157, (S)-3-((5-amino-1-(2-methoxy-5-((4-methylpiperazin-1-yl)methyl)benzyl)-1H-pyrazolo[4,3-d]pyrimidin-7-yl)amino)hexan-1-ol] |
| 199 nM | 604 nM |  |  | CCC[C@@H](CCO)Nc1nc(N)nc2cnn(Cc3cc(CN4CC5(CN(C)C5)C4)ccc3OC)c12 [Compound 158, (3S)-3-[(5-amino-1-{[2-methoxy-5-({6-methyl-2,6-diazaspiro[3.3]heptan-2-yl}methyl)phenyl]methyl}-1H-pyrazolo[4,3-d]pyrimidin-7-yl)amino]-hexan-1-ol] |
| 37.1 nM | 98.6 nM |  |  | CCC[C@@H](CCO)Nc1nc(N)nc2c(C)nn(Cc3cc(CN4CCN(CCO)CC4)ccc3OC)c12 [Compound 159, (3S)-3-({5-amino-1-[(5-{[4-(2-hydroxyethyl)piperazin-1-yl]methyl}-2-methoxyphenyl)methyl]-3-methyl-1H-pyrazolo[4,3-d]pyrimidin-7-yl}amino)hexan-1-ol] |
| 151 nM | 740 nM |  |  | COc1ccc(CN2CC(OC)C2)cc1Cn1ncc2nc(N)nc(NCC[C@H](O)C3CC3)c21 [Compound 160, (1S)-3-{[5-amino-1-({2-methoxy-5-[(3-methoxy-azetidin-1-yl)methyl]phenyl}-methyl)-1H-pyrazolo[4,3-d]pyrimidin-7-yl]amino}-1-cyclopropylpropan-1-ol] |
| 132 nM | 340 nM |  |  | CCC[C@@H](CCO)Nc1nc(N)nc2c(C)nn(Cc3cc(CN4CCNCC4)ccc3OC)c12 [Compound 161, (3S)-3-{[5-amino-1-({2-methoxy-5-[(piperazin-1-yl)methyl]phenyl}methyl)-3-methyl-1H-pyrazolo[4,3-d]pyrimidin-7-yl]amino}hexan-1-ol] |
| 90.3 nM | 294 nM |  |  | CCC[C@@H](CCO)Nc1nc(N)nc2c(C)nn(Cc3cc(CNC4CCOCC4)ccc3OC)c12 [Compound 162, (3S)-3-({5-amino-1-[(2-methoxy-5-{[(oxan-4-yl)amino]methyl}phenyl)methyl]-3-methyl-1H-pyrazolo[4,3-d]pyrimidin-7-yl}amino)-hexan-1-ol] |
| 119 nM | 267 nM |  |  | CC[C@@H](CCO)Nc1nc(N)nc2cnn(Cc3cc(CN4CCN(C)CC4)ccc3OC)c12 [Compound 163, (3S)-3-{[5-amino-1-({2-methoxy-5-[(4-methylpiperazin-1-yl)methyl]phenyl}methyl)-1H-pyrazolo[43-d]pyrimidin-7-yl]amino}pentan-l-ol] |
| 21.7 nM | 48.5 nM |  |  | CCC[C@@H](CCO)Nc1nc(N)nc2c(C)nn(Cc3cc(CN4CCN(C)CC4)ccc3OC)c12 [Compound 164, (3S)-3-{[5-amino-1-({2-methoxy-5-[(4-methylpiperazin-1-yl)methyl]phenyl}methyl)-3-methyl-1H-pyrazolo[4,3-d]pyrimidin-7-yl]amino}hexan-1-ol] |
|  |  | 27.3 nM | 89.9 nM | CCC[C@@H](CCO)Nc1nc(N)nc2cnn(Cc3cc(CNC4CCOCC4)c(F)cc3OC)c12 [Compound 165, (3S)-3-({5-amino-1-[(4-fluoro-2-methoxy-5-{[(oxan-4-yl)amino]-methyl}phenyl)methyl]-1H-pyrazolo[4,3-d]pyrimidin-7-yl}amino)hexan-1-ol] |
|  |  | 34.2 nM | 116 nM | CCC[C@@H](CCO)Nc1nc(N)nc2cnn(Cc3cc(CN4CC(O)C4)c(F)cc3OC)c12 [Compound 166, 1-({5-[(5-amino-7-{[(3S)-1-hydroxyhexan-3-yl]amino}-1H-pyrazolo[4,3-d]pyrimidin-1-yl)methyl]-2-fluoro-4-methoxyphenyl}-methyl)azetidin-3-ol] |
|  |  | 145 nM | 189 nM | CCC[C@@H](CCO)Nc1nc(N)nc2cnn(Cc3cc(CN4CCNCC4)c(F)cc3OC)c12 [Compound 167, (3S)-3-{[5-amino-1-({4-fluoro-2-methoxy-5-[(piperazin-1-yl)methyl]phenyl}methyl)-1H-pyrazolo[4,3-d]pyrimidin-7-yl]amino}hexan-1-ol] |
|  |  | 39.2 nM | 62.8 nM | CCC[C@@H](CCO)Nc1nc(N)nc2cnn(Cc3cc(CN4CCN(CCO)CC4)c(F)cc3OC)c12 [Compound 168, (3S)-3-({5-amino-1-[(4-fluoro-5-{[4-(2-hydroxyethyl)piperazin-1-yl]methyl}-2-methoxyphenyl)-methyl]-1H-pyrazolo[4,3-d]pyrimidin-7-yl}amino)hexan-1-ol] |
|  |  | 6.2 nM | 43.5 nM | CCC[C@@H](CCO)Nc1nc(N)nc2cnn(Cc3cc(CNC)c(F)cc3OC)c12 [Compound 169, (3S)-3-{[5-amino-1-({4-fluoro-2-methoxy-5-[(methylamino)-methyl]phenyl}methyl)-1H-pyrazolo[4,3-d]pyrimidin-7-yl]amino}hexan-1-ol] |
